What was measured:
Format in all cases: cell-based, human
HCT116 cells [1] = assay: Mitotic arrest assay on HCT116 cells (phospho-histone H3 Ser10); conditions: lowest active dose; for minimal effective concentration: Homo sapiens, HCT-116, HCT116 cells, read-out: Mitotic arrest HCT116 LAD (converted)
Text: Phosphorylation of histone H3 is tightly correlated with chromosome condensation during both mitosis and meiosis. The assay is a cellular immunosorbent assay wherein the sole antibody is labelled with a detectable conjugate. The phospho-histone H3 (ser10) antibody detects endogenous levels of histone H3 only when phosphorylated at serine 10. […] In parallel with antibody detection, the nuclei of the cells are stained with Hoechst 33342 for cell-counting. Cells are detected and analysed using the InCell Analyzer 1000 from GE Healthcare. Since both the antibody-detection as well as the Hoechst-staining are in the nucleus, the dual area object intensity algorithm is used for analysing the wells.
All compounds tested were dissolved in DMSO and further dilutions were made in culture medium. Final DMSO concentrations never exceeded 0.1% (v/v).
HCT116 cells (supplier: ATCC) (human colon carcinoma cell line) were cultivated in Mc Coy's 5 A medium (supplier: Gibco) supplemented with 10% foetal calf serum (FCS), 2 mM L-glutamine and gentamycin at 37° C. in a humidified incubator with 5% CO2.
HCT116 cells were seeded at 20.000 cells per well in a 96 well plate (black/clear bottom, poly-D-lysine coated, supplier Greiner), cultured overnight to adhere to the bottom of the plate and treated with compound for 6 hours at 37° C. in a humidified incubator. After incubation, the medium was removed and cells were fixed using 100 μl/well formaldehyde (Accustain®, Formaline solution 10% neutral buffered, contains 4% formaldehyde w/v, supplier: Sigma) was added. After incubation for 15 minutes at room temperature, the formaldehyde was removed and cells were incubated with methanol (−20° C.) for 15 minutes at room temperature. After incubation, cells were washed once with phosphate-buffered saline (PBS —CaCl2, —MgCl2, suppier: Gibco)/0.05% Tween 20. The anti-phospho-histone H3 (Ser10) Alexa Fluor 488 antibody (supplier: Cell signalling) is used for detection of the cells inmitosis. The antibody was diluted 1/50 in 5% bovine serum albumins (BSA) and 50 μl/well was used for incubation overnight at room temperature in the dark.
A 1/2000 dilution of Hoechtst 33342 (10 mg/ml, supplier: Invitrogen) was made and 100 μl/well was added for at least 30 minutes before acquiring images. The absorbance at dual wavelengths of 360/480 nm was measured using the InCell Analyzer 1000 from GE Healthcare and the results were then analyzed.
For each experiment, controls (containing no drug) and a blank incubation (containing no cells or drugs) were run in parallel. Analysis was done in triplicate. Low cell count wells were invalidated. The blank value was subtracted from all control and sample values and divided by the standard deviation of the measurements. The compounds were considered active when the obtained value (sigma) was >5. Herein the effects of test compounds are expressed as the lowest dose giving a sigma value of >5 (LAD) (see table F-2).

HCT116 cells [2] = assay: Antiproliferative activity, Alamar Blue assay, HCT116 cells; set-up: key to HCT116 antiproliferative activity pIC50: pIC50 = -log IC50 (IC50: conc. reducing growth to 50% of control); conditions: for IC50: Homo sapiens, HCT-116, HCT116 cells, read-out: HCT116 antiproliferative activity pIC50 (converted)
Protocol: Human colon carcinoma HCT116 cells obtained from the ATCC were cultured in McCoy's 5 A medium supplemented with 2 mM L-Glutamine, 50 μg/ml gentamicin and 10% heat inactivated fetal calf serum.
(§1) Resazurin was purchased from Aldrich (Prod. No. 199303). Potassium ferrocyanide, potassium ferricyanide, KH2PO4 and K2HPO4 were purchased from Sigma (Prod. Nos. P9387, P8131, P5655 and P8281, respectively).
(§2) Potassium Phosphate Buffer 0.1 M (PPB) was made as follows: 2.72 gram KH2PO4 and 13.86 gram K2HPO4 were dissolved in 500 ml milli-Q H2O, the pH was adjusted to pH 7.4 and the volume was brought to 1 litre with milli-Q H2O; the buffer was filter sterilised and stored at room temperature. Resazurin stock solution (PPB-A) was prepared fresh by dissolving 45 mg resazurin in 15 ml PBS. 30 mM potassium ferricyanide (PPB-B) was prepared by dissolving 0.987 gram potassium ferricyanide in 100 ml PPB. 30 mM potassium ferrocyanide (PPB-C) was prepared by dissolving 1.266 gram potassium ferrocyanide in 100 ml PPB.
(§3) Mixture of PPB-A, PPB-B and PPB-C was prepared by mixing equal volumes of the respective solutions. Resazurin work solution (herein termed “Alamar Blue” solution) was prepared by diluting said mixture 20×(vol/vol) in PPB and filter sterilising; the Alamar Blue solution could be kept at 4° C. for a maximum of 2 weeks.
(§4) For experiments in 384 wells plates the cells were seeded at a density of 4.5×10^3 cells/ml in Falcon 384-well culture plates (Life Technologies, Merelbeke, Belgium), black with clear bottom, in 45 μl culture medium. Cells were allowed to adhere to plastic for 24 hr. The tested compound was pre-diluted (1/50 in culture medium) and 5 μl pre-diluted compound was added to the wells. Following 4-day incubation, 10 μl of the Alamar Blue solution was added to each well and the cells were further incubated for 4 hrs (HCT116) or 24 hrs (PC-3) at 37° C. The fluorescence intensity was measured for each well on a Fluorescence plate reader (Fluorskan, Labsystems, 540 nm excitation and 590 nm emission)
(§5) The antiproliferative activity was calculated as percentage of remaining viable cells in treated versus control (untreated cells) conditions. Within an experiment, the result for each experimental condition is the mean of 3 replicate wells. When appropriate, the experiments were repeated to establish full concentration-response curves. When appropriate, IC50-values (concentration of the drug, needed to reduce cell growth to 50% of the control) were computed using probit analysis for graded data (Finney, D. J., Probit Analyses, 2nd Ed. Chapter 10, Graded Responses, Cambridge University Press, Cambridge 1962). Herein the effects of test compounds are expressed as pIC50 (the negative log value of the IC50-value) (see Table 2).

PC-3 cells = assay: Antiproliferative activity, Alamar Blue assay, PC-3 cells; conditions: for IC50: Homo sapiens, PC-3, PC3 cells, read-out: PC3 antiproliferative activity pIC50 (converted)
Protocol: Human prostate cancer PC-3 cells obtained from the ATCC were cultured in HAM′S F12 medium supplemented with 1 mM Sodium Pyruvate, 1.5 g/L Sodium Bicarbonate, 50 μg/ml gentamicin, non-essential amino acids and 10% fetal calf serum.
as §1, §2, §3, §4, §5

SMILES	IC50 (HCT116 cells [2]) [µM]	IC50 (PC-3 cells) [µM]	HCT116 antiproliferative activity pIC50 (HCT116 cells [2]; HCT116 cells)	PC3 antiproliferative activity pIC50 (PC-3 cells; PC3 cells)	minimal effective concentration (HCT116 cells [1]) [µM]	Mitotic arrest HCT116 LAD (HCT116 cells [1]; HCT116 cells, the values are: pLAD (−log M lowest active dose))
CCc1cc2ccc(C(C)(C#N)CC3COc4ccccc4O3)cc2[nH]c1=O (single isomer, unassigned) [Compound 48]			5.8	5.4		6.5
CCc1cc2ccc([C@@](C)(C#N)CCOc3ccccc3)cc2[nH]c1=O (single isomer, unassigned) [Compound 150]	0.794	1.58			0.316	
Cc1cc2ccc([C@@](C)(C#N)CCOc3ccccc3)cc2[nH]c1=O (single isomer, unassigned) [Compound 164]	1	1			0.1	
CCc1cc2ccc(C(C)(C#N)Cc3cccc(-c4nc(C)no4)c3)cc2[nH]c1=O (centres unmarked) [Compound 11]	1.58	1.58			0.316	
CCc1cc2ccc(C(C)(C#N)Cc3cccc(NC(=O)N4CCOCC4)c3)cc2[nH]c1=O (centres unmarked) [Compound 16]	> 10	> 10			10	
CCc1cc2ccc(C(C)(C#N)Cc3ccccc3Br)cc2[nH]c1=O (centres unmarked) [Compound 104]	0.398	1			0.316	
CCc1cc2ccc(C(C)(C#N)Cc3ccccc3C)cc2[nH]c1=O (centres unmarked) [Compound 105]	0.251	1			0.1	
CCc1cc2ccc(C(C)(C#N)Cc3ccc(C#N)cc3)cc2[nH]c1=O (centres unmarked) [Compound 111]	5.01	> 10			3.16	
CCc1cc2ccc(C(C)(C#N)Cc3c(F)c(F)c(F)c(F)c3F)cc2[nH]c1=O (centres unmarked) [Compound 116]	0.631	0.794			0.1	
CCc1cc2ccc(C(C)(C#N)CC#Cc3cccc(F)c3)cc2[nH]c1=O (centres unmarked) [Compound 184]	3.16	3.98				
Cc1cc2ccc([C@@](C)(C#N)[C@@H]3CCc4cc(C#N)ccc43)cc2[nH]c1=O [Compound 245]	6.31	7.94				
CCc1cc2ccc([C@](C)(C#N)C[C@@H]3CCc4cc(C)ccc4O3)cc2[nH]c1=O [Compound 251]	0.631	1				
CCc1cc2ccc([C@@](C)(C#N)C[C@@H]3CCc4cc(C)ccc4O3)cc2[nH]c1=O [Compound 252]	0.126	0.251				
CCc1cc2ccc(C(C#N)(CC)CCOc3ccc(C#N)cc3)cc2[nH]c1=O (centres unmarked) [Compound 271]	1.58	2.51				
Cc1cc2ccc([C@@](C)(C#N)[C@H]3CCc4cc(C#N)ccc43)cc2[nH]c1=O [Compound 389]	0.2	0.2				
CCc1cc2ccc(C(C#N)(CC)C3CCc4ccc(F)cc43)cc2[nH]c1=O (centres unmarked) [Compound 391]	0.631	0.794				

More lines, main results first:

IC50 (HCT116 cells [2]) [µM]	IC50 (PC-3 cells) [µM]	HCT116 antiproliferative activity pIC50 (HCT116 cells [2]; HCT116 cells)	PC3 antiproliferative activity pIC50 (PC-3 cells; PC3 cells)	SMILES	minimal effective concentration (HCT116 cells [1]) [µM]	Mitotic arrest HCT116 LAD (HCT116 cells [1]; HCT116 cells, the values are: pLAD (−log M lowest active dose))
0.0316	0.158			C#Cc1cccc(CC(C)(C#N)c2ccc3cc(CC)c(=O)[nH]c3c2)c1 (racemic) [Compound 168]	0.0316	
> 10	> 10			CCc1cc2ccc(C(C)(C#N)Cc3cccc(C(=O)O)c3)cc2[nH]c1=O (centres unmarked) [Compound 10]	10	
0.0316	0.0631			CCc1cc2ccc(C(C)(C#N)Cc3cccc(C(=O)OC)c3)cc2[nH]c1=O (centres unmarked) [Compound 12]	0.1	
7.94	7.94			CCc1cc2ccc(C(C)(C#N)Cc3cccc(C(=O)NC)c3)cc2[nH]c1=O (centres unmarked) [Compound 13]	1	
> 10	> 10			CCc1cc2ccc(C(C)(C#N)Cc3cccc(NS(C)(=O)=O)c3)cc2[nH]c1=O (centres unmarked) [Compound 14]	10	
1	2.51			CCc1cc2ccc(C(C)(C#N)Cc3cccc(N)c3)cc2[nH]c1=O (centres unmarked) [Compound 15]	1	
0.398	0.794			CCc1cc2ccc(C(C)(C#N)Cc3ccccc3F)cc2[nH]c1=O (centres unmarked) [Compound 106]	0.1	
0.2	0.251			CCc1cc2ccc(C(C)(C#N)Cc3cccc(C)c3)cc2[nH]c1=O (centres unmarked) [Compound 107]	0.316	
6.31	> 10			CCc1cc2ccc(C(C)(C#N)Cc3ccc(C(F)(F)F)cc3)cc2[nH]c1=O (centres unmarked) [Compound 108]	3.16	
0.251	0.631			CCc1cc2ccc(C(C)(C#N)Cc3cccc(C(F)(F)F)c3)cc2[nH]c1=O (centres unmarked) [Compound 109]	0.316	
0.158	0.2			CCc1cc2ccc(C(C)(C#N)Cc3cccc(OC(F)(F)F)c3)cc2[nH]c1=O (centres unmarked) [Compound 110]	0.316	
0.316	0.398			CCc1cc2ccc(C(C)(C#N)Cc3cccc(F)c3)cc2[nH]c1=O (centres unmarked) [Compound 112]	0.316	
0.398	0.251			CCc1cc2ccc(C(C)(C#N)Cc3cccc(OC)c3)cc2[nH]c1=O (centres unmarked) [Compound 113]	0.316	
1.58	1.58			CCc1cc2ccc(C(C)(C#N)Cc3ccc(OC(F)(F)F)cc3)cc2[nH]c1=O (centres unmarked) [Compound 114]	1	
0.631	0.631			CCc1cc2ccc(C(C)(C#N)Cc3ccc(F)cc3)cc2[nH]c1=O (centres unmarked) [Compound 115]	0.316	
2.51	2			CCc1cc2ccc(C(C)(C#N)Cc3ccc(C)cc3)cc2[nH]c1=O (centres unmarked) [Compound 117]	1	
2	1.26			CCc1cc2ccc(C(C)(C#N)Cc3ccc(Br)cc3)cc2[nH]c1=O (centres unmarked) [Compound 118]	1	
